What was measured:
TurtOBP1 [1] = experiment: fluorescent probe titration (blue shift) with purified recombinant protein; format: binding, Tetranychus urticae
TurtOBP4 [2] = experiment: as above; format: binding, Tetranychus urticae
TurtOBP1 [3] = experiment: competitive fluorescence binding assay, displacement of 1-NPN; set-up: species or system Tetranychus urticae
TurtOBP4 [4] = experiment: as above; set-up: species or system Tetranychus urticae

| Structure (SMILES) | Kd (TurtOBP1 [1]) [µM] | Kd (TurtOBP4 [2]) [µM] | Kd (TurtOBP1 [3]) [µM] | Kd (TurtOBP4 [4]) [µM] |
| --- | --- | --- | --- | --- |
| c1ccc(Nc2cccc3ccccc23)cc1 [1-NPN] | 9.7 | 3.5 |  |  |
| COc1cc(/C=C/C=O)ccc1O [coniferyl aldehyde] |  |  | 9.8 | 6.4 |

Reference: paper PMC8269058, “The Odorant-Binding Proteins of the Spider Mite Tetranychus urticae” (International Journal of Molecular Sciences, 2021)
